Reference: patent publication EP0041644B1 (priority 1980, dated 1981)
Marks after values point to notes of the source that are not given here.

Columns and labels:
[1] = test system: B16 Melanoma; assay: B16 Melanoma - Test 1 (ip tumor brei); format: in vivo, mice; details: for Effect MST % T/C / MST Days: QD 1→9, vehicle CMC + H2O
[2] = test system: B16 Melanoma; assay: B16 Melanoma - Test 3 (sc trocar fragments); format: in vivo, mice; details: for Effect MST %TC / MST Days: qd 1→9
[3] = test system: L1210 Leukemia; assay: L1210 Leukemia - Test 1 (survival of tumor-bearing mice); format: in vivo; details: d. 1 only
From the text: This evaluation of the ammonium salt finds the drug to be active against L1210 (ip) leukemia when administered ip one day post-implant of 10^6 L1210 cells (maximum T/C was 164%). […] The vehicle for the ammonium salt was water.

[4] = test system: Lewis Lung Carcinoma; assay: Lewis Lung Carcinoma - Test 1 (ip, delayed therapy); format: in vivo, mice
[5] = test system: B16 Melanoma; assay: B16 Melanoma - Test 2 (ip tumor brei); format: in vivo, mice; details: QD +9
[6] = test system: L1210 Leukemia; assay: L1210 Leukemia - Test 3 (vehicle comparison); format: in vivo, mice; details: Day 1 only, vehicle CMC + saline
[7] = test system: L-1210 Leukemia; assay: L-1210 Leukemia (Table VIII); details: for lethality: 200 mg/kg, single ip injection; for maximum T/C / optimal doses: single ip injections; for optimal doses: dose of maximum T/C
Experimental: The sodium and ammonium salts of the present invention were tested against transplantable mouse tumors as indicated below. The methodology used generally followed the protocols of the National Cancer Institute (Cancer Chemotherapy Rep., Part 3, 3, 1-103 (1972). The essential experimental details are given at the bottom of the following tables.

[8] = test system: L-1210 Leukemia; assay: L-1210 Leukemia (Table IX); format: in vivo, mice

## [NH2][Pt]1([NH2])[O]C(=O)C(O)C(=O)[O]1 [2-Hydroxymalonato diammine platinum (II), 2-hydroxymalonato diammine platinum (II)]
[1]; 2 mg/kg/day ip
  Effect MST % T/C: 133 % T/C
  MST Days: 26.0 days
[1]; 4 mg/kg/day ip
  Effect MST % T/C: 187 % T/C
  MST Days: 36.5 days
[1]; 8 mg/kg/day ip
  Effect MST % T/C: 177 % T/C
  MST Days: 34.5 days
[1]; 16 mg/kg/day ip
  Effect MST % T/C: >308* % T/C
  MST Days: >60.0* Days
[1]; 24 mg/kg/day ip
  Effect MST % T/C: 54 % T/C
  MST Days: 10.5 days
[1]; 32 mg/kg/day ip
  Effect MST % T/C: 38 % T/C
  MST Days: 7.5 days
[1]; ip B16, ip QD 1→9
  maximum T/C: > 308%
[2]; 8 mg/kg/inj ip
  Effect MST %TC: 131 %TC
  MST Days: 40.0 days
[2]; 12 mg/kg/inj ip
  Effect MST %TC: 115 %TC
  MST Days: 35.0 days
[2]; 16 mg/kg/inj ip
  Effect MST %TC: 48 %TC
  MST Days: 14.5 days
[2]; 24 mg/kg/inj ip
  Effect MST %TC: TOX
  MST Days: TOX
[2]; given ip, sc-implanted B16 melanoma
  T/C: 131%
[3]; 20 mg/kg/day ip
  Effect MST % T/C: 143 % T/C
  MST Days: 10.0 days
[3]; 40 mg/kg/day ip
  Effect MST % T/C: 143 % T/C
  MST Days: 10.0 days
[3]; 60 mg/kg/day ip
  Effect MST % T/C: 157 % T/C
  MST Days: 11.0 days
[3]; 80 mg/kg/day ip
  Effect MST % T/C: 171 % T/C
  MST Days: 12.0 days
[4]; 8 mg/kg/inj ip, qd 5→13
  Effect MST %TC: 112 %TC
  MST Days: 14.0 days
[4]; 12 mg/kg/inj ip, qd 5→13
  Effect MST %TC: 168 %TC
  MST Days: 21.0 days
[4]; 16 mg/kg/inj ip, qd 5→13
  Effect MST %TC: 176 %TC
  MST Days: 22.0 days
[4]; 20 mg/kg/inj ip, d. 5,9&13
  Effect MST %TC: 100 %TC
  MST Days: 12.5 days
[4]; 24 mg/kg/inj ip, qd 5→13
  Effect MST %TC: 220 %TC
  MST Days: 27.5 days
[4]; 40 mg/kg/inj ip, d. 5,9&13
  Effect MST %TC: 120 %TC
  MST Days: 15.0 days
[4]; 60 mg/kg/inj ip, d. 5,9&13
  Effect MST %TC: 156 %TC
  MST Days: 19.5 days
[4]; 80 mg/kg/inj ip, d. 5,9&13
  Effect MST %TC: 152 %TC
  MST Days: 19.0 days
[4]; Day 48 (figure in parentheses), 60 mg/kg/inj ip, d. 5,9&13
  Survivors Day 9(48): 1
[4]; given ip, therapy from day 5
  maximum T/C: 220%
[4]; mouse, in vivo, ip, 8 mg/kg
  Survivors Day 9(48): 6/6
[4]; mouse, in vivo, ip, 12 mg/kg
  Survivors Day 9(48): 6/6
[4]; mouse, in vivo, ip, 16 mg/kg
  Survivors Day 9(48): 6/6
[4]; mouse, in vivo, ip, 20 mg/kg
  Survivors Day 9(48): 6/6
[4]; mouse, in vivo, ip, 24 mg/kg
  Survivors Day 9(48): 6/6
[4]; mouse, in vivo, ip, 40 mg/kg
  Survivors Day 9(48): 6/6
[4]; mouse, in vivo, ip, 60 mg/kg
  Survivors Day 9(48): 6/6
[4]; mouse, in vivo, ip, 80 mg/kg
  Survivors Day 9(48): 6/6
[5]; 2 mg/kg/day ip
  Average Weight Change: -1.1 g
  Effect MST % T/C: 182 % T/C
  MST Days: 37.5 days
[5]; 4 mg/kg/day ip
  Average Weight Change: -1.1 g
  Effect MST % T/C: 163 % T/C
  MST Days: 33.5 days
[5]; 8 mg/kg/day ip
  Average Weight Change: -2.1 g
  Effect MST % T/C: 190 % T/C
  MST Days: 39.0 days
[5]; 16 mg/kg/day ip
  Average Weight Change: -2.3 g
  Effect MST % T/C: >293^a % T/C
  MST Days: >60.0^a Days
[6]; 40 mg/kg ip
  Effect MST % T/C: 114 % T/C
  MST Days: 8.0 days
[6]; 60 mg/kg ip
  Effect MST % T/C: 143 % T/C
  MST Days: 10.0 days
[6]; 80 mg/kg ip
  Effect MST % T/C: 129 % T/C
  MST Days: 9.0 days
[6]; 100 mg/kg ip
  Effect MST % T/C: 100 % T/C
  MST Days: 7.0 days

## O=C1[O][Pt]2([NH]C3CCCCC3[NH]2)[O]C(=O)C1O (stereo not drawn) [2-hydroxymalonato(1,2-diaminocyclohexane)platinum (II)]
[7]; 25 mg/kg/inj ip, d.1
  Average Weight Change: -0.3 g
  Effect MST % T/C: 142 % T/C
  MST Days: 8.5 days
  Survivors Day 5(30): 6/6
[7]; 50 mg/kg/inj ip, d.1
  Average Weight Change,g: +0.1 g
  Effect MST % T/C: 150 % T/C
  MST Days: 9.0 days
  Survivors Day 5(30): 6/6
[7]; 100 mg/kg/inj ip, d.1
  Average Weight Change: -1.5 g
  Effect MST % T/C: 183 % T/C
  MST Days: 11.0 days
  Survivors Day 5(30): 6/6
[7]
  lethality: lethal
  maximum T/C: 183%
  optimal doses: 100 mg/kg
[7]; 200 mg/kg/inj ip, d.1
  Average Weight Change,g: TOX
  Effect MST % T/C: TOX
  MST Days: TOX
  Survivors Day 5(30): 0/6

## O=C1[O][Pt]2([NH]C3CCCCC3[NH]2)[O]C(=O)C1[O-].[Na+] (stereo not drawn) [Example 6, 2-Hydroxymalonato(1,2-diaminocyclohexane)platinum (II), sodium salt]
[7]; 6 mg/kg/inj ip, qd 1→9
  Average Weight Change: -0.9 g
  Effect MST % T/C: 192 % T/C
  MST Days: 11.5 days
  Survivors Day 5(30): 6/6
[7]; 12 mg/kg/inj ip, qd 1→9
  Average Weight Change: -2.3 g
  Effect MST % T/C: 233 % T/C
  MST Days: 14.0 days
  Survivors Day 5(30): 6/6
[7]; 24 mg/kg/inj ip, qd 1→9
  Average Weight Change: -2.4 g
  Effect MST % T/C: 342 % T/C
  MST Days: 20.5 days
  Survivors Day 5(30): 4/6
[7]; 25 mg/kg/inj ip, d.1
  Average Weight Change: -0.8 g
  Effect MST % T/C: 183 % T/C
  MST Days: 11.0 days
  Survivors Day 5(30): 6/6
[7]; 48 mg/kg/inj ip, qd 1→9
  Average Weight Change: -3.3 g
  Effect MST % T/C: 100 % T/C
  MST Days: 6.0 days
  Survivors Day 5(30): 5/6
[7]; 50 mg/kg/inj ip, d.1
  Average Weight Change: -1.2 g
  Effect MST % T/C: 208 % T/C
  MST Days: 12.5 days
  Survivors Day 5(30): 6/6
[7]; 100 mg/kg/inj ip, d.1
  Average Weight Change,g: +2.6 g
  Effect MST % T/C: 217 % T/C
  MST Days: 13.0 days
  Survivors Day 5(30): 6/6
[7]
  lethality: lethal
  maximum T/C: 217%
  optimal doses: 100 mg/kg
[7]; 200 mg/kg/inj ip, d.1
  Average Weight Change,g: TOX
  Effect MST % T/C: TOX
  MST Days: TOX
  Survivors Day 5(30): 1/6
[7]; qd 1→9, 12 mg/kg/inj
  T/C: 233%
[7]; qd 1→9, 24 mg/kg/injection
  T/C: 342%

## O=C1[O][Pt]2([NH]CC3(CCCCC3)C[NH]2)[O]C(=O)C1[O-].[Na+] [Example 9, 2-Hydroxymalonato (1,1-diaminomethylcyclohexane)-platinum (II), sodium salt]
[8]; 2 mg/kg/inj ip, qd 1→9
  Average Weight Change,g: -1.3 g
  Effect MST % T/C: 131 % T/C
  MST Days: 8.5 days
[8]; 4 mg/kg/inj ip, qd 1→9
  Average Weight Change,g: -1.2 g
  Effect MST % T/C: 154 % T/C
  MST Days: 10.0 days
[8]; 8 mg/kg/inj ip, qd 1→9
  Average Weight Change,g: -1.3 g
  Effect MST % T/C: 238 % T/C
  MST Days: 15.5 days
[8]; 12 mg/kg/inj ip, Day 1
  Average Weight Change,g: -1.8 g
  Effect MST % T/C: 162 % T/C
  MST Days: 10.5 days
[8]; 12 mg/kg/inj ip, qd 1→9
  Average Weight Change,g: -3.0 g
  Effect MST % T/C: 292 % T/C
  MST Days: 19.0 days
[8]; 24 mg/kg/inj ip, Day 1
  Average Weight Change,g: -3.7 g
  Effect MST % T/C: 215 % T/C
  MST Days: 14.0 days
[8]; 36 mg/kg/inj ip, Day 1
  Average Weight Change,g: -4.3 g
  Effect MST % T/C: 223 % T/C
  MST Days: 14.5 days
[8]; 48 mg/kg/inj ip, Day 1
  Average Weight Change,g: -3.6 g
  Effect MST % T/C: 200 % T/C
  MST Days: 13.0 days
[8]; qd 1→9 (cis-DDP 2.4, parent 8 and 12, sodium salt 12 mg/kg/injection)
  maximum T/C: 292%
[8]; single ip injection at maximum tolerated dose (cis-DDP 8 mg/kg, the two others 36 mg/kg)
  maximum T/C: 223%
other
  Water-solubility at room temperature: ≥ 100 mg/mL
